This is an account of results in ChEMBL document CHEMBL4004838, “Design and synthesis of novel phenyl -1, 4-beta-carboline-hybrid molecules as potential anticancer agents” (Eur J Med Chem, 2017).

What all share (format): functional
Assay [1] has as its system RPMI-8226. The assay can be described thus: Growth inhibition of human RPMI8226 cells assessed as cell growth at 0.01 uM incubated for 48 hrs by sulforhodamine B assay relative to control. The note with it: RPMI-8226, 48 h, read-out: Activity.
The next assay deals with OVCAR-8. The assay can be described thus: Growth inhibition of human OVCAR8 cells assessed as cell growth at 10^-5 M incubated for 48 hrs by sulforhodamine B assay relative to control. The note with it: OVCAR-8, 48 h, read-out: Activity. (In general: Sulforhodamine B stains cellular protein and so reports cell mass.)
A further assay relates to HOP-92. The assay can be described thus: Growth inhibition of human HOP92 cells assessed as cell growth at 1 uM incubated for 48 hrs by sulforhodamine B assay relative to control. Conditions: HOP-92, 48 h, read-out: Activity.
A further assay relates to KM12. Briefly: Growth inhibition of human KM12 cells incubated for 48 hrs by sulforhodamine B assay. Conditions: KM12, 48 h.
For the next assay, the system named is SF-539. Briefly: Growth inhibition of human SF539 cells assessed as cell growth at 100 uM incubated for 48 hrs by sulforhodamine B assay relative to control. The note with it: SF-539, 48 h, read-out: Activity.
The test system of the next assay is T47D. The assay can be described thus: Growth inhibition of human T47D cells assessed as cell growth at 10^-5 M incubated for 48 hrs by sulforhodamine B assay relative to control. Conditions: read-out: Activity.
A further assay has as its system LOX IMVI. Briefly: Growth inhibition of human LOXIMVI cells assessed as cell growth at 10^-5 M incubated for 48 hrs by sulforhodamine B assay relative to control. Conditions: read-out: Activity.
In the next assay the test system is K562. The assay can be described thus: Growth inhibition of human K562 cells assessed as cell growth at 10^-5 M incubated for 48 hrs by sulforhodamine B assay relative to control. The note with it: K562, 48 h, read-out: Activity.
For a further assay, the system named is NCI-H23. The assay can be described thus: Growth inhibition of human NCI-H23 cells assessed as cell growth at 10^-5 M incubated for 48 hrs by sulforhodamine B assay relative to control. The note with it: NCI-H23, 48 h, read-out: Activity.
The next assay has as its system NCI-H226. The assay can be described thus: Growth inhibition of human NCI-H226 cells assessed as cell growth at 10^-5 M incubated for 48 hrs by sulforhodamine B assay relative to control. The note with it: NCI-H226, 48 h, read-out: Activity.
A further assay concerns NCI-H460. The assay can be described thus: Growth inhibition of human NCI-H460 cells assessed as cell growth at 10^-5 M incubated for 48 hrs by sulforhodamine B assay relative to control. The note with it: NCI-H460, 48 h, read-out: Activity.
The next assay has as its system ACHN. The assay can be described thus: Growth inhibition of human ACHN cells assessed as cell growth at 10^-5 M incubated for 48 hrs by sulforhodamine B assay relative to control. Conditions: read-out: Activity.
A further assay relates to CCRF-CEM. Briefly: Growth inhibition of human CCRF-CEM cells assessed as cell growth at 10^-5 M incubated for 48 hrs by sulforhodamine B assay relative to control. The note with it: read-out: Activity.
In another assay the test system is DU-145. Briefly: Growth inhibition of human DU145 cells assessed as cell growth at 10^-5 M incubated for 48 hrs by sulforhodamine B assay relative to control. The note with it: DU-145, 48 h, read-out: Activity.
The next assay relates to IGROV-1. The assay can be described thus: Growth inhibition of human IGROV1 cells assessed as cell growth at 10^-5 M incubated for 48 hrs by sulforhodamine B assay relative to control. The note with it: IGROV-1, 48 h, read-out: Activity.
The next assay has as its system SW-620. Briefly: Growth inhibition of human SW620 cells assessed as cell growth at 10^-5 M incubated for 48 hrs by sulforhodamine B assay relative to control. Conditions: SW-620, 48 h, read-out: Activity.
The next assay relates to COLO 205. Briefly: Growth inhibition of human COLO205 cells assessed as cell growth at 10^-5 M incubated for 48 hrs by sulforhodamine B assay relative to control. Conditions: COLO 205, 48 h, read-out: Activity.
A further assay relates to SNB-19. The assay can be described thus: Growth inhibition of human SNB19 cells assessed as cell growth at 10^-5 M incubated for 48 hrs by sulforhodamine B assay relative to control. The note with it: SNB-19, 48 h, read-out: Activity.
For another assay, the system named is MOLT-4. The assay can be described thus: Growth inhibition of human MOLT4 cells assessed as cell growth at 10^-5 M incubated for 48 hrs by sulforhodamine B assay relative to control. Conditions: MOLT-4, 48 h, read-out: Activity.
In the next assay the test system is EKVX. Briefly: Growth inhibition of human EKVX cells assessed as cell growth at 10^-5 M incubated for 48 hrs by sulforhodamine B assay relative to control. Conditions: read-out: Activity.
For another assay, the system named is SK-MEL-5. The assay can be described thus: Growth inhibition of human SK-MEL-5 cells assessed as cell growth at 10^-5 M incubated for 48 hrs by sulforhodamine B assay relative to control. Conditions: SK-MEL-5, 48 h, read-out: Activity.
A further assay deals with UACC-257. Briefly: Growth inhibition of human UACC257 cells assessed as cell growth at 10^-5 M incubated for 48 hrs by sulforhodamine B assay relative to control. The note with it: UACC-257, 48 h, read-out: Activity.
In a further assay the test system is A549. Briefly: Growth inhibition of human A549/ATCC cells assessed as cell growth at 10^-5 M incubated for 48 hrs by sulforhodamine B assay relative to control. The note with it: A549, 48 h, read-out: Activity.
A further assay relates to MDA-MB-468. The assay can be described thus: Growth inhibition of human MDA-MB-468 cells assessed as cell growth at 10^-5 M incubated for 48 hrs by sulforhodamine B assay relative to control. The note with it: MDA-MB-468, 48 h, read-out: Activity.
Assay [2] has as its system RPMI-8226. The assay can be described thus: Growth inhibition of human RPMI8226 cells assessed as cell growth at 10^-5 M incubated for 48 hrs by sulforhodamine B assay relative to control. The note with it: RPMI-8226, 48 h, read-out: Activity.
A further assay has as its system M14. Briefly: Growth inhibition of human M14 cells assessed as cell growth at 10^-5 M incubated for 48 hrs by sulforhodamine B assay relative to control. The note with it: M14, 48 h, read-out: Activity.
The subject of a further assay is SK-OV-3. The assay can be described thus: Growth inhibition of human SKOV3 cells assessed as cell growth at 10^-5 M incubated for 48 hrs by sulforhodamine B assay relative to control. The note with it: SK-OV-3, 48 h, read-out: Activity.
Another assay concerns HT-29. The assay can be described thus: Growth inhibition of human HT-29 cells assessed as cell growth at 10^-5 M incubated for 48 hrs by sulforhodamine B assay relative to control. The note with it: HT-29, 48 h, read-out: Activity.
For the next assay, the system named is OVCAR-5. Briefly: Growth inhibition of human OVCAR5 cells assessed as cell growth at 10^-5 M incubated for 48 hrs by sulforhodamine B assay relative to control. Conditions: OVCAR-5, 48 h, read-out: Activity.
A further assay relates to SN12C. The assay can be described thus: Growth inhibition of human SN12C cells assessed as cell growth at 10^-5 M incubated for 48 hrs by sulforhodamine B assay relative to control. Conditions: read-out: Activity.
Another assay concerns NCI-H522. Briefly: Growth inhibition of human NCI-H522 cells assessed as cell growth at 10^-5 M incubated for 48 hrs by sulforhodamine B assay relative to control. The note with it: NCI-H522, 48 h, read-out: Activity.
Another assay deals with MDA-MB-231. The assay can be described thus: Growth inhibition of human MDA-MB-231 cells assessed as cell growth at 10^-5 M incubated for 48 hrs by sulforhodamine B assay relative to control. The note with it: MDA-MB-231, 48 h, read-out: Activity.

Each structure is given as a SMILES string.

In the case of `c1ccc2c3c([nH]c2c1)C(c1ccc(C2NCCc4c2[nH]c2ccccc42)cc1)NCC3` (racemic), the growth at 0.01 µM in the assay on RPMI-8226 [1] was determined as 102%. For the same molecule, in the assay with OVCAR-8, the growth at 10 µM was -41.5%. The growth at 1 µM with HOP-92 is 44%. The GI50 in the assay with KM12 (read-out: GI50) and with KM12 (read-out: pGI50 (converted)) was 1070 nM in each case. Moreover, the TGI in the assay on KM12 (read-out: TGI) is 2360 nM; in the assay on KM12 (read-out: pTGI (converted)) it was 2340 nM. The growth at 100 µM in the assay on SF-539 was found to be 97%.

As to `Cc1ccc(S(=O)(=O)N2CCc3c([nH]c4ccccc34)C2c2ccc(-c3nc4ccccc4[nH]3)cc2)cc1` (centres undefined), the growth at 10 µM is 89.1% in the assay with T47D; 85.5% in the assay with LOX IMVI; 106% in the assay with K562; 85.7% in the assay on NCI-H23; 86.4% in the assay on NCI-H226; 93% with NCI-H460. The growth at 10 µM with ACHN came to 79.1%; in the assay on CCRF-CEM, 106%; with DU-145 it was 101%; in the assay with IGROV-1 it was 86.5%; with SW-620, 90.1%; with COLO 205, 92.1%. In addition, the growth at 10 µM in the assay on SNB-19 was 91.3%; in the assay on OVCAR-8 it was 98.2%; in the assay with MOLT-4 it was 95.9%; in the assay with EKVX it was 87.4%; with SK-MEL-5 it was 89.8%; in the assay with UACC-257 it was 102%. Moreover, the growth at 10 µM in the assay with A549 worked out at 92.8%; with MDA-MB-468, 102%; in the assay on RPMI-8226 [2] it was 99.1%; in the assay on M14, 85.8%; with SK-OV-3, 88.5%; in the assay with HT-29, 87.2%. Further, the growth at 10 µM in the assay with OVCAR-5 was determined as 78.7%; with SN12C it was 87.7%; with NCI-H522 it was 60.3%; in the assay on MDA-MB-231, 73.4%.

As to `c1ccc2[nH]c(-c3ccc(-c4nccc5c4[nH]c4ccccc45)cc3)nc2c1`, the growth at 0.01 µM with RPMI-8226 [1] turned out to be 106%. In addition, the growth at 10 µM in the assay with NCI-H23 is 18 to 69.1%; in the assay with NCI-H460, 42.9%; in the assay on DU-145, 19 to 67.4%; with IGROV-1, 25 to 94.5%; in the assay on SNB-19, 27 to 55.1%; with OVCAR-8, 4 to 16.5%. Moreover, the growth at 10 µM in the assay with EKVX was 13 to 81.2%; in the assay on SK-MEL-5 it was 16 to 62.6%; in the assay with A549, 21 to 45.7%; in the assay on SK-OV-3, 22 to 104%; with SN12C it was 60.9%. Besides, the growth at 1 µM in the assay with HOP-92 was 85%. For the same molecule, the LC50 with KM12 (read-out: LC50) was 5290 nM; with KM12 (read-out: pLC50 (converted)), 52500 nM. The GI50 with KM12 (read-out: pGI50 (converted)) was 3630 nM. In addition, the TGI in the assay with KM12 (read-out: pTGI (converted)) was 15800 nM. Moreover, the growth at 100 µM with SF-539 was found to be 70%.
